Structures are written as SMILES.

The series is described as follows: RP, Waters ACQUITY UPLC HSS T3, 100 × 2.1 mm, 1.8 µm, 0.3 mL/min, estimated dead time 0.73 min; A: water + 0.1% formic acid, pH 3; B: methanol + 0.1% formic acid, pH 3; gradient (min/%B) 0/1 1/15 4/35 7/95 9/95 10/1 14/95. The conditions noted are these: stereoisomer not certain.
For the compound `O=[N+]([O-])c1ccccc1O` [2-nitrophenol], the LC retention time is 8.45 min.
Then `O=C1CC(C(=O)O)NC(=O)N1` [L-dihydroorotic acid], with 1.07 min; and `O=C(O)CC(O)(CC(=O)O)C(=O)O` [citric acid monohydrate], with 8.41 min; and `CC12CCC3c4ccc(O)cc4CCC3C1CCC2O` (configuration not stated) [estradiol], with 19.7 min.
With `CC(C)CC(N)C(=O)O` (configuration not stated) [leucine] the figure was 2.53 min; with `CSCCC(N)C(=O)O` (configuration not stated) [methionine], 1.21 min.
Regarding `NC(Cc1ccccc1)C(=O)O` (configuration not stated) [phenylalanine], the LC retention time was 4.45 min.
Then `CC(=O)C1CCC2C3CCC4=CC(=O)CCC4(C)C3CCC12C` (configuration not stated) [progesterone], with 10.1 min; and `Cc1cc2nc3c(=O)[nH]c(=O)nc-3n(CC(O)C(O)C(O)CO)c2cc1C` (configuration not stated) [riboflavin], with 7.22 min.
Then `CC(CCC(=O)NCC(=O)O)C1CCC2C3C(O)CC4CC(O)CCC4(C)C3CC(O)C12C` (configuration not stated) [sodium glycocholate hydrate], with 11 min; and `NC(Cc1c[nH]c2ccccc12)C(=O)O` (configuration not stated) [tryptophan], with 5.45 min.
For the compound `O=c1ccn(C2OC(CO)C(O)C2O)c(=O)[nH]1` (configuration not stated) [uridine], the LC retention time is 2.2 min.

These data come from the RepoRT retention time repository.
